{"source": "patent US6440445B1", "about": "“Methods and compounds for treatment of abnormal uterine bleeding” (Brigham & Women's Hospital, priority 1996, dated 2002)", "key": {"myometrial cells [1]": {"system": "myometrial cells", "experiment": "Cytotoxicity (lactate dehydrogenase assay, trypan blue exclusion), myometrial cells", "type": "cell-based", "from_the_text": "(§1) We have also discovered that pirfenidone is a response-blocking compound. Pirfenidone is an antifibrotic agent which is being investigated for use in patients with pulmonary fibrosis. […] Possible cytotoxic effects were examined using lactate dehydrogenase assays and trypan blue exclusion.\n(§2) Additionally, the effect of pirfenidone on cell proliferation and the percentage of dead cells was examined, and the results from the two experiments are shown in FIG. 12."}, "myometrial cells [2]": {"system": "myometrial cells", "experiment": "Pirfenidone: cell proliferation (tritiated thymidine incorporation, cell number), myometrial cells", "type": "cell-based", "conditions": "p<0.01", "from_the_text": "as §1"}, "leiomyoma cells [3]": {"system": "leiomyoma cells", "experiment": "Pirfenidone: cell proliferation (tritiated thymidine incorporation, cell number), leiomyoma cells", "type": "cell-based", "conditions": "p<0.01", "from_the_text": "as §1"}, "leiomyoma cells [4]": {"system": "leiomyoma cells", "experiment": "Cytotoxicity (lactate dehydrogenase assay, trypan blue exclusion), leiomyoma cells", "type": "cell-based", "from_the_text": "as §1, §2"}, "leiomyoma cells [5]": {"system": "leiomyoma cells", "experiment": "Collagen type I and III messenger RNA expression by RNA blotting, leiomyoma cells", "type": "cell-based"}, "human fibroblasts": {"system": "human fibroblasts", "conditions": "in response to bFGF, TGFB and PDGF; cited from earlier work"}, "myometrial cells [6]": {"system": "myometrial cells", "experiment": "Collagen type I and III messenger RNA expression by RNA blotting, myometrial cells", "type": "cell-based"}, "[7]": {"system": "FGF / specific cell surface receptors", "conditions": "cited from earlier work"}, "[8]": {"system": "vascular smooth muscle cells, T cells, and fibroblasts", "conditions": "wide variety of cells; cited from earlier work"}, "uterine stromal cells": {"system": "uterine stromal cells", "experiment": "Proliferation of uterine stromal cells (cell counts)", "type": "cell-based", "conditions": "only in the presence of progesterone (10 ng/ml bFGF + 100 nm MPA); 7 days", "procedure": "Stromal cells were used at the first passage and were plated into 100 mm dishes (200,000/dish) in serum-containing medium. The following day, cells were rinsed and transferred to serum-free medium containing insulin, transferrin and selenium. Cells remained in this medium for 48 hr to induce quiescence and then received fresh serum-free medium with one of the following treatments: ITS (medium containing only insulin, transferin, and selenium), ITS+10% fetal bovine serum, MPA (ITS+100 nm medroxy progesterone acetate), E2 (ITS+10 nm estradiol 17-beta), bFGF (ITS+10 ng/ml bFGF), bFGF/E2/MPA (ITS+100 nm MPA+10 nm estradiol+10 ng/ml bFGF), bFGF+2% fetal bovine serum (ITS+10 ng/ml bFGF+2% fetal bovine serum), bFGF+MPA (ITS+10 ng/ml bFGF+100 nm MPA) and bFGF+E2 (TS+10 ng/ml bFGF+10 nm estradiol). Cells were treated for a total of 7 days with cell counts performed on days 2, 4 and 7."}, "[9]": {"system": "cultured human myometrial smooth muscle cells", "experiment": "DNA synthesis (tritiated thymidine incorporation) in cultured myometrial smooth muscle cells", "type": "cell-based", "conditions": "for basal and serum-stimulated DNA synthesis (tritiated thymidine incorporation): interferon 10, 100, 1000 U/ml, 24 hr, serum-free 0.1% BSA or 10% fetal bovine serum", "procedure": "(§3) Myometrial and leiomyoma cells from the same patients were used at first passage for proliferation assays. 10,000 cells were plated per well in 96-well plates in medium+10 % serum. Cells were cultured for three days and then placed in serum-free medium for 48 hr to attain quiescence. Interferon-α was tested at the following doses in 10% serum-containing medium; 0, 10, 100 and 1000 U/ml for a period of 24 hr. Tritiated thymidine (luCi/ml) was added to the culture wells for the final 4-6 hr of incubation, the medium removed, cells harvested and counted for thymidine incorporation.\n(§4) Effects on basal DNA synthesis were tested using cells cultured in serum-free medium containing only 0.1% BSA while effects on serum-stimulated cells were assessed using cells cultured in medium with 10% fetal bovine serum.\n(§5) FIGS. 6c and 6d show the effects of interferon-α on bFGF induced increases in DNA synthesis by uterine myometrial and leiomyoma cells, respectively. Cells were treated with either medium+10% serum of various concentrations of bFGF (0.5 ng/ml, 1.0 ng/ml, 5.0 ng/m. and 10 ng/ml) to compare mitogenic effects. Cells cultured in serum were also treated with interferon-α at 10, 100 and 1000 U/ml, while cells cultured in the various concentrations of bFGF were treated with 100 U/ml of interferon α."}, "smooth muscle cell": {"system": "smooth muscle cell", "conditions": "also certain tumor cells; cited from earlier work"}, "[10]": {"system": "endometrial stromal cells", "experiment": "DNA synthesis in endometrial stromal cells", "type": "cell-based", "from_the_text": "Interferons blocked both bFGF and serum-stimulated DNA synthesis in these cells. […] The results also show the effects of increasing concentrations of interferon-alpha on serum stimulated DNA synthesis.\nThe results also show the effects of increasing concentrations of interferon-alpha (10, 100 and 1000 U/ml) on serum (2%) stimulated DNA synthesis."}, "[11]": {"system": "cultured human leiomyoma smooth muscle cells", "experiment": "DNA synthesis (tritiated thymidine incorporation) in cultured leiomyoma smooth muscle cells", "type": "cell-based", "conditions": "for basal and serum-stimulated DNA synthesis (tritiated thymidine incorporation): interferon 10, 100, 1000 U/ml, 24 hr, serum-free 0.1% BSA or 10% fetal bovine serum", "procedure": "as §3, §4, §5"}, "[12]": {"conditions": "bFGF 0.5-10 ng/ml with 100 U/ml interferon"}}}
{"compound": "Cc1ccc(=O)n(-c2ccccc2)c1", "note": "[pirfenidone, 5-methyl-1-phenyl-2-(1H)-pyridone]", "values": [{"measurement": "lactate dehydrogenase (LDH) levels", "setting": "myometrial cells [1]", "value": "No significant effects"}, {"measurement": "cytotoxic effect on the cells", "setting": "myometrial cells [1]; at the doses tested", "value": "no cytotoxic effect"}, {"measurement": "percentage of dead cells", "setting": "myometrial cells [1]; only at 1.0 mg/ml, p<0.05", "value": "significant increase"}, {"measurement": "cell proliferation", "setting": "myometrial cells [2]", "value": "dose dependent inhibition"}, {"measurement": "cell proliferation", "setting": "leiomyoma cells [3]", "value": "dose dependent inhibition"}, {"measurement": "lactate dehydrogenase (LDH) levels", "setting": "leiomyoma cells [4]", "value": "No significant effects"}, {"measurement": "cytotoxic effect on the cells", "setting": "leiomyoma cells [4]; at the doses tested", "value": "no cytotoxic effect"}, {"measurement": "percentage of dead cells", "setting": "leiomyoma cells [4]; only at 1.0 mg/ml, p<0.05", "value": "significant increase"}, {"measurement": "levels of RNA for collagen type I", "setting": "leiomyoma cells [5]", "value": "reduced"}, {"measurement": "levels of RNA for collagen type III", "setting": "leiomyoma cells [5]", "value": "reduced"}, {"measurement": "fibroblast proliferation in vitro", "setting": "human fibroblasts", "value": "inhibit fibroblast proliferation"}, {"measurement": "levels of RNA for collagen type I", "setting": "myometrial cells [6]", "value": "reduced"}, {"measurement": "levels of RNA for collagen type III", "setting": "myometrial cells [6]", "value": "reduced"}]}
{"compound": "Cc1ccc(C(=O)Nc2ccc(S(=O)(=O)O)c3cc(S(=O)(=O)O)cc(S(=O)(=O)O)c23)cc1NC(=O)c1cccc(NC(=O)Nc2cccc(C(=O)Nc3cc(C(=O)Nc4ccc(S(=O)(=O)O)c5cc(S(=O)(=O)O)cc(S(=O)(=O)O)c45)ccc3C)c2)c1", "note": "[suramin]", "values": [{"measurement": "binding of FGF to specific cell surface receptors", "setting": "[7]", "value": "interfere with the ability of FGFs to bind"}, {"measurement": "FGF induced proliferation", "setting": "[8]", "value": "very potent inhibitor"}]}
{"compound": "bFGF: basic fibroblast growth factor, angiogenic growth factor", "values": [{"measurement": "proliferation of uterine stromal cells (cell number)", "setting": "uterine stromal cells", "value": "stimulates the proliferation"}, {"measurement": "effect of growth factor on DNA synthesis", "setting": "[9]; bFGF 0.5-10 ng/ml", "value": "increase in DNA synthesis"}]}
{"compound": "heparin", "values": [{"measurement": "smooth muscle cell proliferation", "setting": "smooth muscle cell", "value": "very good inhibitors"}, {"measurement": "binding of FGF to specific cell surface receptors", "setting": "[7]", "value": "inhibit FGF binding"}]}
{"compound": "interferon-α", "values": [{"measurement": "serum-stimulated DNA synthesis", "setting": "[10]; 2% serum, interferon 10, 100, 1000 U/ml", "value": "blocked"}, {"measurement": "bFGF stimulated DNA synthesis", "setting": "[10]; bFGF 0.1-5 ng/ml, 100 U/ml interferon", "value": "blocked"}, {"measurement": "bFGF induced DNA synthesis", "setting": "[11]; [12]", "value": "inhibitory effect"}, {"measurement": "basal and serum-stimulated DNA synthesis (tritiated thymidine incorporation)", "setting": "[11]", "value": "dose-dependent inhibition"}, {"measurement": "basal and serum-stimulated DNA synthesis (tritiated thymidine incorporation)", "setting": "[11]; listed as interferon alpha", "value": "tritiated thymidine incorporation decreases"}, {"measurement": "bFGF induced DNA synthesis", "setting": "[9]; [12]", "value": "abolished the stimulating effect"}, {"measurement": "basal and serum-stimulated DNA synthesis (tritiated thymidine incorporation)", "setting": "[9]", "value": "dose-dependent inhibition"}, {"measurement": "basal and serum-stimulated DNA synthesis (tritiated thymidine incorporation)", "setting": "[9]; listed as interferon alpha", "value": "tritiated thymidine incorporation decreases"}]}
